Reference: patent US4620871A (priority 1980, dated 1986)

Legend:
Pinto beans = experiment: Preservation of chlorophyll in Pinto beans (Example 17); assay type: in vivo; details: zeatin 20 ppm, kinetin/benzyladenine 30 ppm, others 200 ppm; for Extinction: 665 mμ, 200 mg fresh weight, 2 weeks
Protocol: Endogeneous and synthetic cytokinins were applied as comparative substances. Solutions with varying concentrations, but always more dilute than 10^-4 moles, were applied in the tests.
The tests were performed on Pinto beans. The plants were treated with an endogenous cytokinin (zeatine), synthetic cytokinins (kinetin, benzyladenine) or cytokinin-like compounds, respectively, and the chlorophyll content of the leaves was determined 2 weeks after the treatment by measuring the extinction of the extract of the leaves at 665 mμ.

soybean leaf segments = experiment: Stimulation of the protein level of soybean, glycine-14C incorporation (Example 18); details: 24 hours; for Radioactivity: 200 ppm, control 11.9
Protocol: The active agent to be tested was dissolved in distilled water to form a 200 ppm solution, and soybean leaf segments, weighing 200 mg, were floated on the surface of the solution for 24 hours. In the control test leaf segments, weighing 200 mg, were floated on the surface of distilled water.
The leaf segments were washed with distilled water, and then treated for 3 hours with 20 ml of a solution containing labelled amino acid (glycine-^14 C; activity: 2 μCi). After this exposition period the leaf segments were washed with an aboundant amount of water, and the protein content of the leaf segments was isolated in a manner known per se. Stock solution was prepared from the isolated protein, and the specific radioactivity of the solution was determined by liquid scintillation.

leaves of Pinto bean [1] = experiment: Protein synthesis, glycine-2-14C incorporation in Pinto bean leaves (Example 19); details: 18 hours, zeatin 20 ppm, kinetin/benzyladenine 30 ppm, others 200 ppm
Protocol: The tests were performed on leaves of Pinto bean. The leaf segments were treated with an endogeneous cytokinin (zeatin), synthetic cytokinins (kinetin, benzyladenine) or with the compositions according to the invention, respectively, by floating the leaf segments on the solution of the test substance for 18 hours. Thereafter the leaf segments were exposed to a labelled amino acid (glycine-2-^14 C) for 3 hours, and the incorporation of the amino acid was determined by radiometry.

leaves of Pinto bean [2] = experiment: Stimulation of photolytic activity, HTO, Pinto bean (Example 23); details: 18 hours, zeatin 20, kinetin/benzyladenine 30, others 200 ppm; for Photolytic activity: control 7.64
Protocol: The stimulating effects of an endogeneous cytokinin (zeatin), synthetic cytokinins (kinetin, benzyladenine) and the cytokinin-like regulators according to the invention exerted on the photolytic activity connected to the decomposition of HTO were examined on leaves of Pinto bean. The leaf discs were floated for 18 hours on solutions of the substances under examination, and then exposed to a radioactivity of 200 μCi/100 ml for one hour to effect photolysis of HTO.

Wheat = experiment: Stimulation of nutrient uptake, labelled phosphate, wheat (Example 24); details: for labelled phosphate in nucleic acid fraction: 200 ppm, control 17.4
Protocol: (§1) The compositions according to the invention were diluted with distilled water to an active agent concentration of 200 ppm, and leaf segments of wheat, maize and pea, weighing 200 mg each, were treated with the solutions. Thereafter the treated green leaf segments were treated for 0.5 hours with a solution of labelled phosphate ions (radioactivity: 30 μCi/50 ml). After this exposition period the treated leaf segments and the untreated controls were processed in a manner known per se to isolate the nucleic acid fractions, and the isolated nucleic acid fractions were dissolved in 6 n ammonium hydroxide solution. Stock solutions were prepared from the resulting solutions, and the amount of labelled phosphate ions present in the stock solutions were measured by liquid scintillation.

Maize = experiment: Stimulation of nutrient uptake, labelled phosphate, maize (Example 24); details: for labelled phosphate in nucleic acid fraction: 200 ppm, control 31.2
Protocol: as §1

Alfalfa = experiment: Total and protein nitrogen content of alfalfa, field (Example 26); assay type: in vivo; details: for Protein nitrogen content: control 2.25; for Total nitrogen content: control 3.36
Protocol: Alfalfa was treated with the compositions according to the invention under large-parcel field conditions. The tests were performed in fourfold replications on parcels 1 hectare in area, each. The oily compositions according to the invention were diluted with water and then sprayed onto the test parcels either once or twice.
The parcels were sprayed first when the soil was already covered with sprouting alfalfa shoots. The second treatment, if any, was performed two weeks later. The dose applied in all of the treatments was 2 kg/ha.
The total nitrogen content and the protein nitrogen content of alfalfa, harvested from the untreated, once-treated and twice-treated parcels, was measured.

Soybean = experiment: Grain yield of soybean (Example 30); assay type: in vivo; details: 3 x 2 kg/ha; for Grain yield: control 29.53
Protocol: Soybean cultures were sprayed three times with the compositions according to the invention. The active agents were applied in a dosis of 2 kg/ha, in all of the treatments. The stand was sprayed first at the beginning of flowering, then at the flowering of the apical cluster, and finally two weeks after the second treatment.
The grain yield of soybean, harvested from the treated and control parcels, was measured.

[3] = test system: Mexican 226 K wheat variety; experiment: Nitrogen contents of grains of Mexican 226 K wheat (Example 31); assay type: in vivo; details: for Protein nitrogen content: control 1.61; for Total nitrogen content: seed 2 kg/ha + soil 2 kg/ha, control 2.12
Protocol: Two wheat varieties, Libelulla and Mexican 226 K, were utilized in the tests performed under large-parcel field conditions. The sowing seeds were coated with the compositions of the invention according to the wet powder seed dressing technique; a dosis of 2 kg/ha was applied.
The soil was also treated with the compositions according to the invention directly before sowing. A dose of 2 kg/ha was applied.
The grain yields of the wheat varieties, harvested from the treated and control parcels, were measured, and the total nitrogen content and protein nitrogen content of the grains were determined.

sugar beet = experiment: Crop yield and sugar content of sugar beet (Example 32); assay type: in vivo; details: for Crop yield: 1 kg/ha seed + 2 x 2 kg/ha, control 541; for Sugar content: after harvesting, control 16.0; for Sugar yield: control 87.56; for Sugar yield, increase: in vivo
Protocol: Glomeruli of sugar beet were treated with the compositions according to the invention (a dose corresponding to 1 kg/ha was applied), and the glomeruli were sown into large parcels. The plants emerged were sprayed twice with the compositions according to the invention, applying a dose of 2 kg/ha, each.
The sugar contents of the plants grown on the treated and control parcels were examined in August.
The crop yield and the sugar content were also determined after harvesting.

grass stands = experiment: Crop yield and nitrogen content of grass stand (Example 34); assay type: in vivo; details: for Protein nitrogen content / Total nitrogen content / Crop yield: 3 x 2 kg/ha; for Protein nitrogen content: control 2.80; for Total nitrogen content: control 4.22; for Crop yield: 4 m^2 parcels, control 5.10
Protocol: Tests were performed on grass stands to examine how the compositions according to the invention influence the crop yield, furthermore the total nitrogen content and protein nitrogen content of the crop.
Parcels, 4 m^2 in area, were separated and pegged out on a grass land, and the parcels were sprayed three times with the compositions according to the invention. The liquid compositions were diluted with water prior to spraying, and spraying was repeated in every two weeks. A dose of 2 kg/ha w was applied in each of the treatments.
Thereafter the grass was mowed, the green crop was weighed, and the total nitrogen content and protein nitrogen content of the mowed grass were determined.

`N=C(N)N.N=C(N)N.Oc1nnc(O)c2ccccc12` [1,4-dihydroxyphthalazine diguanidine salt] was tested, and the Extinction (Pinto beans) was 0.985, the Promotion (Pinto beans) was 46.8% and the Radioactivity (soybean leaf segments) was 15.5 mu Ci/100 mg. The activation at 200 ppm (soybean leaf segments; Glycine max) was 30.2%, the Stimulation (leaves of Pinto bean [1]) was 39.0% and the Stimulation (leaves of Pinto bean [2]) was 79%. The Photolytic activity (leaves of Pinto bean [2]) was 13.72 dpm/mg of glucose, the “labelled phosphate in nucleic acid fraction” value (Wheat) was 29.3 1000 cpm/g and the activation at 200 ppm (Wheat; Triticum aestivum) was 68.5%. The “labelled phosphate in nucleic acid fraction” value (Maize) was 47.0 1000 cpm/g, the activation at 200 ppm (Maize; Zea mays) was 50.6% and the “Protein nitrogen content, stimulation” value (Alfalfa; 1 treatment, 2 kg/ha) was 54%. For the same compound, the “Total nitrogen content, stimulation” value (Alfalfa; 1 treatment, 2 kg/ha) was 24%, the Protein nitrogen content (Alfalfa; 1 treatment, 2 kg/ha) was 3.48 % of dry substance and the Total nitrogen content (Alfalfa; 1 treatment, 2 kg/ha) was 4.17 % of dry substance. For the same compound, the “Grain yield, increase” value (Soybean) was 39%, the Grain yield (Soybean) was 41.22 q/ha and the “Protein nitrogen content, stimulation” value [3] was 28.5%. For the same compound, the “Total nitrogen content, stimulation” value [3] was 5.6%, the Protein nitrogen content [3] was 2.07 % of dry substance and the Total nitrogen content [3] was 2.81 % of dry substance. The Crop yield (sugar beet) was 608 q/ha, the Sugar content (sugar beet) was 16.45% and the Sugar yield (sugar beet) was 100.01 q/ha. For the same compound, the “Sugar yield, increase” value (sugar beet) was 14%, the Protein nitrogen content (grass stands) was 2.62% and the Total nitrogen content (grass stands) was 3.89%. The Crop yield (grass stands) was 5.35.
In the case of `CCC[n+]1c[nH]c2ccccc21.[Br-]` [N--(n-Propyl)-benzimidazolium bromide, N-(n-propyl)-benzimidazolium bromide], the Extinction (Pinto beans) is reported as 1.081, the Promotion (Pinto beans) is reported as 61.2% and the Radioactivity (soybean leaf segments) is reported as 13.7 mu Ci/100 mg. For the same compound, the Stimulation (leaves of Pinto bean [1]) was 42.7%, the “Radioactivity of the TCA-insoluble fraction” value (leaves of Pinto bean [1]; control 3.17) was 4.52 1000 dpm/200 mg fresh weight and the Stimulation (leaves of Pinto bean [2]) was 84%. The Photolytic activity (leaves of Pinto bean [2]) was 14.08 dpm/mg of glucose, the “labelled phosphate in nucleic acid fraction” value (Wheat) was 22.8 1000 cpm/g and the “labelled phosphate in nucleic acid fraction” value (Maize) was 39.3 1000 cpm/g. The “Protein nitrogen content, stimulation” value (Alfalfa; 1 treatment, 2 kg/ha) was 8%, the “Total nitrogen content, stimulation” value (Alfalfa; 1 treatment, 2 kg/ha) was 4% and the Protein nitrogen content (Alfalfa; 1 treatment, 2 kg/ha) was 2.48 % of dry substance. For the same compound, the Total nitrogen content (Alfalfa; 1 treatment, 2 kg/ha) was 3.51 % of dry substance, the “Protein nitrogen content, stimulation” value (Alfalfa; 2 treatments, 2 kg/ha each) was 22% and the “Total nitrogen content, stimulation” value (Alfalfa; 2 treatments, 2 kg/ha each) was 13%. The Protein nitrogen content (Alfalfa; 2 treatments, 2 kg/ha each) was 2.75 % of dry substance, the Total nitrogen content (Alfalfa; 2 treatments, 2 kg/ha each) was 3.91 % of dry substance and the “Grain yield, increase” value (Soybean) was 30%. For the same compound, the Grain yield (Soybean) was 38.67 q/ha, the “Protein nitrogen content, stimulation” value [3] was 8.0% and the “Total nitrogen content, stimulation” value [3] was 1.0%. For the same compound, the Protein nitrogen content [3] was 1.74 % of dry substance, the Total nitrogen content [3] was 2.15 % of dry substance and the Crop yield (sugar beet) was 877 q/ha. The Sugar content (sugar beet) was 17.05%, the Sugar yield (sugar beet) was 149.49 q/ha and the “Sugar yield, increase” value (sugar beet) was 70%. The Protein nitrogen content (grass stands) was 3.54%, the Total nitrogen content (grass stands) was 5.36% and the Crop yield (grass stands) was 5.27. The “Protein nitrogen content, increase” value (grass stands; in vivo) was 26.4% and the “Total nitrogen content, increase” value (grass stands; in vivo) was 27.0%.
